Drawing on paper PMC10005547, “Development of Highly Efficient Estrogen Receptor β-Targeted Near-Infrared Fluorescence Probes Triggered by Endogenous Hydrogen Peroxide for Diagnostic Imaging of Prostate Cancer” (Molecules, 2023), this text covers IC50, Ki and CC50 for two compounds.

Series [1] deals with DU-145. As to the kind of experiment: cells. Set-up: CCK-8 cell viability assay, absorbance at 450 nm. The conditions noted are these: Homo sapiens, DU-145, 96 h. The protocol:
(§1) Normal breast cells MCF-10A and prostate cancer cells DU-145 (purchased from ATCC, Rockville, MD, USA), breast cancer cells MCF-7 (purchased from the Type Culture Collection of the Chinese Academy of Sciences, Shanghai, China) were cultured in a phenol red DMEM [compound left out] medium supplemented with 10% fetal bovine serum. When the cell density reached 80% to 90%, the cells were digested, and the cell suspension was spread into 96-well cell culture plates with a phenol red-free DMEM medium containing 10% CS. After the cells were completely adherent, the original culture medium was discarded, and 100 μL of fresh compound solution prepared with the DMEM medium containing 10% CS were added to each well. The concentration gradient of the compound is: 1 × 10^−7.5 M, 1 × 10^−7 M, 1 × 10^−6.5 M, 1 × 10^−6 M, 1 × 10^−5.5 M, 1 × 10^−5 M, 1 × 10^−4.5 M, 1 × 10^−4 M. After 4 days of drug-treated culture, the culture plate was removed, the culture medium was aspirated, 100 μL CCK-8 working solution was added to each well and incubated for 1.5–2 h at 37 °C in a 5% CO2 incubator. The plate was read on the microplate reader, the wavelength at 450 nm was selected as the reference wavelength, the experimental results were analyzed, and the IC50 was calculated. To investigate the toxicity of P1 and P2 on normal cells and their inhibitory activity on cancer cells before performing cellular imaging, we tested the effects of P1 and P2 on MCF-10A normal breast cells, MCF-7 breast cancer cells with high ERα expression, and DU-145 prostate cancer cells with high ERβ expression by using CCK-8 assays (Table S1). […] However, P1 was not toxic to any of these three cell lines.

The test system of series [2] is MCF-7. As to the kind of experiment: cells. Set-up: CCK-8 cell viability assay, absorbance at 450 nm. Conditions: Homo sapiens, MCF7, 96 h. The protocol: as §1
In series [3] the target is T1, ERβ (Homo sapiens, UniProt Q92731).
T1 construct: gene ESR2
T1 sequence (Q92731 whole entry): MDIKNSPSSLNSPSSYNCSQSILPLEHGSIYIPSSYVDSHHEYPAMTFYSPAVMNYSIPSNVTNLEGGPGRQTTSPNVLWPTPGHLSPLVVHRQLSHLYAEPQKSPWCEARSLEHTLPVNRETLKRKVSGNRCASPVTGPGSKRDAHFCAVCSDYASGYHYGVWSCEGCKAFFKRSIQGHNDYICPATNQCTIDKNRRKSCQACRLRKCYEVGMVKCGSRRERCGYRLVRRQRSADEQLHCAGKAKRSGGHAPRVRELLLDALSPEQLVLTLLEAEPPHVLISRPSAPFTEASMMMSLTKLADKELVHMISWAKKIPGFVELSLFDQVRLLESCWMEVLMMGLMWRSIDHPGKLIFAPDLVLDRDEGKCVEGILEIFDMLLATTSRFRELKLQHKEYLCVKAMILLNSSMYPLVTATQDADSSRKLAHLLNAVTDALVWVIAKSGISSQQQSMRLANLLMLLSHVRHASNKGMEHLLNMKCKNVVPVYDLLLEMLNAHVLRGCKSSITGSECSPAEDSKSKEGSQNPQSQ
The series can be described thus: fluorescence polarization competition against a fluorescent ligand. The series is classed as binding. (In general: In fluorescence polarisation assays a small probe gives low polarisation when free and higher when bound to something large.)

Series [4] in a line: in vitro. The conditions noted are these: human, mcf-10a cells; read-out: MCF-10A (IC50). Set-up: CCK-8 cell viability assay, absorbance at 450 nm. The protocol: Normal breast cells MCF-10A and prostate cancer cells DU-145 (purchased from ATCC, Rockville, MD, USA), breast cancer cells MCF-7 (purchased from the Type Culture Collection of the Chinese Academy of Sciences, Shanghai, China) were cultured in a phenol red DMEM [compound left out] medium supplemented with 10% fetal bovine serum. When the cell density reached 80% to 90%, the cells were digested, and the cell suspension was spread into 96-well cell culture plates with a phenol red-free DMEM medium containing 10% CS. After the cells were completely adherent, the original culture medium was discarded, and 100 μL of fresh compound solution prepared with the DMEM medium containing 10% CS were added to each well. The concentration gradient of the compound is: 1 × 10^−7.5 M, 1 × 10^−7 M, 1 × 10^−6.5 M, 1 × 10^−6 M, 1 × 10^−5.5 M, 1 × 10^−5 M, 1 × 10^−4.5 M, 1 × 10^−4 M. After 4 days of drug-treated culture, the culture plate was removed, the culture medium was aspirated, 100 μL CCK-8 working solution was added to each well and incubated for 1.5–2 h at 37 °C in a 5% CO2 incubator. The plate was read on the microplate reader, the wavelength at 450 nm was selected as the reference wavelength, the experimental results were analyzed, and the IC50 was calculated. […]

The target of series [5] is T2, ERα (Homo sapiens, UniProt P03372).
T2 construct: gene ESR1
T2 sequence (P03372 1-595): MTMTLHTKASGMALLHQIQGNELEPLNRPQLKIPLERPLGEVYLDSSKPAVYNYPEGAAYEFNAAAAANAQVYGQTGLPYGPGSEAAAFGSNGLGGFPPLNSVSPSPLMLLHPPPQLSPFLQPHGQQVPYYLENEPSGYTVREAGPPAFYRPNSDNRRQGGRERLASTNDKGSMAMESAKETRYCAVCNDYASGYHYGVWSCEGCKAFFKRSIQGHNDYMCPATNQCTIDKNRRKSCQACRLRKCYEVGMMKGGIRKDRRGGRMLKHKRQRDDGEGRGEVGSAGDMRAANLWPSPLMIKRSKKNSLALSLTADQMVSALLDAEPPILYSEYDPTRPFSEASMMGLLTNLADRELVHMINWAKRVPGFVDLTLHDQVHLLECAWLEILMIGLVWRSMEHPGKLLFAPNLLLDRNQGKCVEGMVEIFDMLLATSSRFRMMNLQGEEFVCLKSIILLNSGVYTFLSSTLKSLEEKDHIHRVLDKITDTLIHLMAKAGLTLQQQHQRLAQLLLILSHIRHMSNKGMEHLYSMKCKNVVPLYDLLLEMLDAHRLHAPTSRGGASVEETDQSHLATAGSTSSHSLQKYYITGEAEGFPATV
As to the kind of experiment: fluorescence polarization competition against a fluorescent ligand. The series is classed as binding.

`CC1(C)OB(c2ccc(/C=C/C3=CC(=C(C#N)C#N)c4cc(O)ccc4O3)cc2)OC1(C)C` [P1, (E)-2-(6-Hydroxy-2-(4-(4,4,5,5-tetramethyl-1,3,2-dioxaborolan-2-yl)styryl)-4H-chromen-4-ylidene)malononitrile]: the IC50 in series [1] and in series [2] was above 100 µM each time. Also, the figures for the Ki in series [3] and in series [5] were 1.42 ± 0.02 µM and 4.36 ± 0.01 µM, respectively. Besides, the CC50 at 96 h in series [4] was above 100 µM.

In the case of `C=CS(=O)(=O)Oc1ccc2c(c1)C(=C(C#N)C#N)C=C(/C=C/c1ccc(B3OC(C)(C)C(C)(C)O3)cc1)O2` [P2, (E)-4-(Dicyanomethylene)-2-(4-(4,4,5,5-tetramethyl-1,3,2-dioxaborolan-2-yl)styryl)-4H-chromen-6-yl ethenesulfonate], the IC50 in series [1] was above 100 µM; in series [2], 16.3 ± 4.42 µM. Besides, the Ki was 1.21 ± 0.03 µM in series [3] and 8.73 ± 0.01 µM in series [5]. In series [4], the CC50 at 96 h is above 100 µM.

The term IC50 denotes the concentration that inhibits the measured activity by half. Low readings indicate inhibition by little substance, high ones a need for much substance. Usually Ki stands for the equilibrium dissociation constant of an inhibitor or competing ligand from its target. Read a low Ki as higher affinity.
